Measurements as given in ChEMBL document CHEMBL1135598, “In silico and NMR identification of inhibitors of the IGF-I and IGF-binding protein-5 interaction” (J Med Chem, 2002).
Values belong to the molecule of their own block, whether it stands above or below them.

How the values were obtained:
[1] = target: T1, Insulin-like growth factor-binding protein 5 (Homo sapiens, UniProt P24593); assay: Dissociation constant binding to Insulin-like growth factor binding protein 5 at the residue L-81
[2] = target: T1, Insulin-like growth factor-binding protein 5; assay: Dissociation constant in PBS binding to Insulin-like growth factor binding protein 5 at the residue Y50
[3] = target: T1, Insulin-like growth factor-binding protein 5; assay: Dissociation constant in DMSO binding to Insulin-like growth factor binding protein 5 at the residue S85
[4] = target: T1, Insulin-like growth factor-binding protein 5; assay: Dissociation constant in PBS binding to Insulin-like growth factor binding protein 5 at the residue R87
[5] = target: T1, Insulin-like growth factor-binding protein 5; assay: Dissociation constant in PBS binding to Insulin-like growth factor binding protein 5 at the residue Y86
[6] = target: T1, Insulin-like growth factor-binding protein 5; assay: Dissociation constant in DMSO binding to Insulin-like growth factor binding protein 5 at the residue Y50
[7] = target: T1, Insulin-like growth factor-binding protein 5; assay: Dissociation constant in DMSO binding to Insulin-like growth factor binding protein 5 at the residue R87
[8] = target: T1, Insulin-like growth factor-binding protein 5; assay: Dissociation constant in PBS binding to Insulin-like growth factor binding protein 5 at the residue L73
[9] = target: T1, Insulin-like growth factor-binding protein 5; assay: Dissociation constant in PBS binding to Insulin-like growth factor binding protein 5 at the residue L81
[10] = target: T1, Insulin-like growth factor-binding protein 5; assay: Dissociation constant in PBS binding to Insulin-like growth factor binding protein 5 at the residue K91
[11] = target: T1, Insulin-like growth factor-binding protein 5; assay: Dissociation constant in PBS binding to Insulin-like growth factor binding protein 5 at the residue S85
[12] = target: T1, Insulin-like growth factor-binding protein 5; assay: Dissociation constant in DMSO binding to Insulin-like growth factor binding protein 5 at the residue L73
[13] = target: T1, Insulin-like growth factor-binding protein 5; assay: Dissociation constant in DMSO binding to Insulin-like growth factor binding protein 5 at the residue L81
[14] = target: T1, Insulin-like growth factor-binding protein 5; assay: Dissociation constant in DMSO binding to Insulin-like growth factor binding protein 5 at the residue K91
[15] = target: T1, Insulin-like growth factor-binding protein 5; assay: Dissociation constant in DMSO binding to Insulin-like growth factor binding protein 5 at the residue Y86
[16] = target: T1, Insulin-like growth factor-binding protein 5; assay: Dissociation constant in binding to Insulin-like growth factor binding protein 5 at the residue L81
[17] = target: T1, Insulin-like growth factor-binding protein 5; assay: Dissociation constant in binding to Insulin-like growth factor binding protein 5 at the residue Y50
[18] = target: T1, Insulin-like growth factor-binding protein 5; assay: Dissociation constant in BS binding to Insulin-like growth factor binding protein 5 at the residue K91
[19] = target: T1, Insulin-like growth factor-binding protein 5; assay: Dissociation constant in binding to Insulin-like growth factor binding protein 5 at the residue Y86
[20] = target: T1, Insulin-like growth factor-binding protein 5; assay: Dissociation constant in binding to Insulin-like growth factor binding protein 5 at the residue S85
[21] = target: T1, Insulin-like growth factor-binding protein 5; assay: Dissociation constant in binding to Insulin-like growth factor binding protein 5 at the residue L73
[22] = target: T1, Insulin-like growth factor-binding protein 5; assay: Dissociation constant in binding to Insulin-like growth factor binding protein 5 at the residue R87

T1 sequence (P24593 whole entry): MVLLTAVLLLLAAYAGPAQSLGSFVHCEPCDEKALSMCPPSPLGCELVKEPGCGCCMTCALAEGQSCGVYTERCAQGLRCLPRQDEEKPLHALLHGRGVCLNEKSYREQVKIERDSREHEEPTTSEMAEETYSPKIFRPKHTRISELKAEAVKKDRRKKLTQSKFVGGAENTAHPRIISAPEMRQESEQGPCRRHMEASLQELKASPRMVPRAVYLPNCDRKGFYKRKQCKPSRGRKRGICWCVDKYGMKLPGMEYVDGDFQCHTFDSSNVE

Kd [1]: 1080 µM
SMILES: O=C(N[C@H](Cc1ccccc1)C(=O)O)OCC1c2ccccc2-c2ccccc21

SMILES: O=C(N[C@H](Cc1ccc(OP(=O)(O)O)cc1)C(=O)O)OCC1c2ccccc2-c2ccccc21
Kd [1]: 2780 µM
Kd [2]: 1820 µM
Kd [3]: 1380 µM
Kd [4]: 2360 µM
Kd [5]: 1720 µM
Kd [6]: 1580 µM
Kd [7]: 1640 µM
Kd [8]: 2930 µM
Kd [9]: 2880 µM
Kd [10]: 2120 µM
Kd [11]: 2330 µM
Kd [12]: 1310 µM
Kd [13]: 2780 µM
Kd [14]: 2420 µM
Kd [15]: 1900 µM

Kd [1]: 718 µM
SMILES: CC(C)(C)Oc1ccc(C[C@@H](NC(=O)OCC2c3ccccc3-c3ccccc32)C(=O)O)cc1

Kd [16]: 610000 µM
Kd [17]: 648000 µM
Kd [18]: 719000 µM
Kd [19]: 783000 µM
Kd [20]: 650000 µM
Kd [21]: 541000 µM
Kd [22]: 921000 µM
SMILES: C[S+](C)[O-] [DIMETHYL SULFOXIDE]
